Source: patent publication US10465005B2, “JAML specific binding agents, antibodies, and uses related thereto” (Emory University, priority 2011, dated 2019)

Assays:
[1] = tested on: JAML shedding from differentiated HL60; experiment: JAML shedding with protease inhibitors, differentiated HL60; assay type: cell-based, human; settings: PMA 200 nM; cocktail 1:50, AEBSF 1 mM, PMSF 2 mM, Phenanthroline 5 mM, NEM 6 mM; sandwich ELISA; FIG. 6A
Procedure: JAML shedding from differentiated HL60 was assayed as described in the legend for FIG. 5. Protease inhibitors were added to cell suspensions during incubation in H^+ with or without PMA. Inhibitors used were Sigma inhibitor cocktail (Cat #P8340) used at 1:50 dilution, AEBSF 1 mM, PMSF 2 mM, Phenanthroline 5 mM and NEM 6 mM.
(§1) To explore the mechanisms for release of JAML from the surface of differentiated HL60 and PLB-985 cells during activation with PMA, PMA was added to cells in the presence or absence of a variety of protease inhibitors. The protease inhibitor cocktail from Sigma that targets serine proteases was used as well as cysteine proteases and several independent inhibitors. […] (Le Gall et al., 2003, JBC 278 No46 45255-45268).
Cells were suspended at 100×10^6 cells/ml in 50 ml centrifuge tubes. PMA was added at a final concentration of 200 nM and tubes incubated at 37° C. of 30 min. Supernatants were collected by centrifugation. To eliminate the presence of macroparticles in the supernatants, ultracentrifugation was performed in a table-top microcentrifuge (Beckman TL-100) at 100,000 g for 30 minutes. The “cleared” supernatants were assayed for the presence of soluble JAML.
Purified antibody DW100 (100 μl/well of 10 μg/ml dilution) was coated onto a high binding 96 well plate (Immulon II) overnight at 4° C. or 1½ hr at 37° C. After washing, 200 μl of 5% blocking solution (Roche) was added to each well for 1 hr at room temperature (RT). After washing, 100 μl supernatant samples in triplicates were added to the wells as well as serial dilutions of purified sJAML-His and incubated for 1 hr RT. After washing, 100 μl biotinylated DW216 antibodies was added at 10 μg/ml. This was followed after a wash by Streptavidin-HRP diluted at 1:4000. The wells were washed again and after addition of ABTS substrate, wells were analyzed using a microplate reader at 405 nm wavelength.

[2] = tested on: JAML shedding from PLB985; experiment: JAML shedding with protease inhibitors, PLB985; assay type: cell-based, human; settings: Phenanthroline; TAPI-2 1 μM
Procedure: FIG. 5C. Inhibition of JAML shedding on the cell surface of PLB985 was confirmed by FACS analysis of cells stained with DW216. In the presence of inhibitors, activated cells maintained the same level of surface expression as the non-activated cells.
as §1
Cells suspensions of adherent cells were prepared by trypsinization with Trypsin-EDTA (Sigma). After washing, cells were resuspended in FACS buffer (2% FBS in PBS+0.1% Na Azide). Approximately, 3-5×10^5 cells were incubated with 5-10 μg/ml of primary antibody for 1 hr at 4° C. followed by 3 washes in FACS buffer and incubation with 1 μg/ml secondary antibody conjugated with Alexa-488. After final washes, cells were analyzed using FACS Calibur. […] All samples were stained for JAML (DW100 mAb) and CD11b/CD18 (CBRM 1/29), and only CD11b/CD18 positive cells (PMNs) were analyzed for JAML expression.

[3] = tested on: JAML release from CHO-JAML-His transfectants; experiment: JAML release with protease inhibitors, CHO-JAML-His transfectants; assay type: cell-based
[4] = tested on: HL-60 and PLB-985 cell lines; experiment: Surface JAML on HL-60 and PLB-985 after PMA activation; assay type: cell-based, human; settings: 200 nM PMA, 30 minutes at 37° C.; FIG. 5A
Procedure: Both HL60 and PLB985 (non-differentiated and differentiated) were washed in Hanks solution with Ca^++ and Mg^++ (H^+) at 30×10^6 cells per condition and resuspended in 350 μl H^+ or H^+ containing 200 nM PMA followed by 30 minutes incubation at 37° C. A cell aliquot was set aside for flow cytometry and cells were stained with monoclonal CBRM1/29 (CD11b/CD18) or DW100 anti JAML followed by Alexa Fluor 488 conjugated goat anti mouse antibody.
The findings of JAML shedding were extended to both HL-60 and PLB-985 cell lines. […] Upon activation, human neutrophils release microparticles,called ectosomes, directly from the cell surface and that ectosomes are implicated in the inflammatory response (Eken et al., 2008, J. Immunol. 180, 817-824). To test whether JAML molecules were released in microparticles, supernatants from activated cells were subjected to ultracentrifuge (100,000×g). […] Thus, JAML is indeed shed into the medium upon PMN activation as a soluble molecule.

PMN = experiment: Surface JAML on PMN after activation (flow cytometry); assay type: cell-based, human; settings: PMA 200 nM, suspension, 15 minutes at 37° c.; FIG. 4A
Procedure: Freshly isolated PMN, not treated (No Tx), or treated with either fMLF (100 nM) or PMA (200 nM) in suspension for 15 minutes at 37° c. were fixed with 1% paraformaldehyde, stained for JAML (DW100) and CD11b/CD18 (CBRM 1/29) and analyzed for surface expression by flow cytometry.
Since prior to transepithelial migration PMNs exit the blood vessels, whether JAML expression on PMNs would be preserved during migration across endothelial cells (HDMECs) towards a 10 μM fMLF, as described previously was evaluated. Indeed under similar conditions only a small portion of surface JAML was lost, but most of it was still detectable on PMN surface (FIG. 3B).
Thus whether PMN activation alone is sufficient to induce the loss of surface JAML or whether direct contact with the epithelium is required was examined. To test this, the expression of JAML was analyzed on PMNs that were stimulated in suspension with fMLF (100 μM) and PMA (200 nM). PMNs were allowed to adhere to epithelial cells for 1 hour. The loss of JAML could be correlated to the degree of PMN activation. […] This was again confirmed by immunofluorescence (FIG. 4B). PMN adhesion to epithelium in the absence of proinflamatory stimulus (as measured by flow cytometry, gating on Mac-1 positive PMNs) was also sufficient to induce a partial loss of surface JAML (FIG. 4C), in agreement with the small loss of surface JAML observed after migration through endothelial cells (FIG. 3B). […] Next, the observed loss of JAML during PMN activation may be due to its shedding from PMN surface and thus would be detectable in the supernatant of activated cells. To test this hypothesis, two antibodies, DW100 and DW216 that recognize two different epitopes of JAML were used in a sandwich ELISA assay to capture solubilized molecules in the supernatant of activated PMN.

monocytes = experiment: Surface JAML on monocytes after PMA activation; assay type: cell-based, human; settings: 15 minutes at 37° C., FIG. 11
Procedure: Monocytes were isolated and purified from whole blood of healthy human donors, incubated on ice with either IgG control (solid histograms) or purified anti-JAML antibodies (5 μg/ml), followed by Alexa Fluor 488 conjugated goat anti mouse antibody before (NoTx) and after PMA activation (PMA, 15 minutes at 37° C.). JAML surface expression was analyzed by flow cytometry.
Following the observation of a complete loss of JAML on PMNs that underwent TEM and with the use of JAML specific mAbs, it was determined that the loss of JAML was induced by PMN activation and that it correlated to the degree of activation and the strength of the given stimulus. […] JAML shedding is not restricted to PMNs alone. JAML is also expressed on blood monocytes. […] As monocytes trail the PMNs infiltrating mucosal surfaces, in addition to PMNs they would also be a source for soluble JAML, further enhancing its effects on epithelial function. […] The shedding of JAML is believed to be due to a zinc-dependent metalloprotease that is inhibited by phenanthroline, a zinc chelator molecule and TAPI-2, a hydroxymate acid-base derivative which inhibits zinc-dependent metalloprotease activities by binding specifically to the catalytic site of the enzyme.

epithelial CAR = biological target: T1, epithelial CAR (Mus musculus, UniProt P97792); experiment: Immunofluorescence of wounded mouse colonic tissue; assay type: in vivo; settings: I.P. administered his-tagged protein; 1 day after wounding; FIG. 13E
T1 construct: from tissue; host or cells: mouse colonic mucosa
T1 sequence (P97792 20-365): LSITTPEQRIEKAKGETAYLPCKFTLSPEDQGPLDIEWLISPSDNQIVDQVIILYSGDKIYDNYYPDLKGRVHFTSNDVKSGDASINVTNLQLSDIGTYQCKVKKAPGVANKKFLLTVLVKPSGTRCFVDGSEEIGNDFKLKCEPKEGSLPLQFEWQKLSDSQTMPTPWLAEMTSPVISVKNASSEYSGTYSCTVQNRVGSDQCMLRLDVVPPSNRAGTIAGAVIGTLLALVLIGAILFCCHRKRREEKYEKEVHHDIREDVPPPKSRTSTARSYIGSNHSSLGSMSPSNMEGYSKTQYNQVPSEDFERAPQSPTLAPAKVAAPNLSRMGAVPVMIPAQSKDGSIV

murine CAR = biological target: T2, murine CAR (Mus musculus, UniProt P97792); settings: cited from earlier work
T2 sequence (P97792 20-365): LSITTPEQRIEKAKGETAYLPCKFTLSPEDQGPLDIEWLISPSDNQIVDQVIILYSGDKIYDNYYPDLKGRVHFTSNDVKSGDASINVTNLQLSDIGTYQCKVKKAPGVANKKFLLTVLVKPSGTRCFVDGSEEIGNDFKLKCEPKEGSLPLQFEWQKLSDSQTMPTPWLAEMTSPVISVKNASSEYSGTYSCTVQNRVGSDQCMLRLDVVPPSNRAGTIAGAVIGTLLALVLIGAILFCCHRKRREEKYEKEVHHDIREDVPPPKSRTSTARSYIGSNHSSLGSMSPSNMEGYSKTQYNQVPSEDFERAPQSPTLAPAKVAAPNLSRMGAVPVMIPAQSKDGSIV

CAR = biological target: T3, CAR (Mus musculus, UniProt P97792); experiment: Colonic mucosal wound healing in vivo; settings: mice; I.P. twice a day 10 μg in 200 μl PBS; endoscopic imaging; FIG. 13B
T3 construct: from tissue; host or cells: mouse colonic mucosa
T3 sequence (P97792 20-365): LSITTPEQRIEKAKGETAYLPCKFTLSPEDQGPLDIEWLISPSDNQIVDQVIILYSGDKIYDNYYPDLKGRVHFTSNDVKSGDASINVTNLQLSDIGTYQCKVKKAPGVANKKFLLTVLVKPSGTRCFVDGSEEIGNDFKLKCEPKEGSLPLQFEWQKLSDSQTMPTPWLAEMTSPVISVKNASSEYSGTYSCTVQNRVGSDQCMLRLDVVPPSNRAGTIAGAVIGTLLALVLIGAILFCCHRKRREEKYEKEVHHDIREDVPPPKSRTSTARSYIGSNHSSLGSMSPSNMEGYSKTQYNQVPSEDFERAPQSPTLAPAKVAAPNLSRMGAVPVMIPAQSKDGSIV
Procedure: (§2) To examine this in-vivo, the effect of inhibition of CAR function was analyzed on mucosal wound recovery. […] See Witherden et al., Science, 2010, 329(5996): 1205-1210. Whether administration of recombinant Ad5 inhibits colonic wound healing was examined in mice in a fashion analogous to the endogenous CAR ligand, JAML. Colonic mucosal wounds were generated using a mouse colonoscope, and wound recovery was examined 2 and 4 days post wounding by endoscopic imaging in the presence of Ad5, Ad11 (administered I.P, twice a day 10 μg in 200 μl PBS) or PBS alone.
as §2, with “function” for “function was analyzed”, “recovery was analyzed.” for “recovery.”, “colonoscope (FIG. 13, Panel A),” for “colonoscope,”, “alone. […] The delayed wound closure was also evident from histological analysis (representative images, FIG. 13, Panel C) and whole mount preparation (representative images, FIG. 13, Panel D).” for “alone.”

## NCCc1ccc(S(=O)(=O)F)cc1 [AEBSF]
[1]
  inhibition of PMA-induced JAML shedding, differentiated HL60: No decrease in JAML shedding

## O=S(=O)(F)Cc1ccccc1 [PMSF, Phenylmethylsulfonyl fluoride]
[1]
  inhibition of PMA-induced JAML shedding, differentiated HL60: showed some inhibition

## CCN1C(=O)C=CC1=O [N-Ethyl maleimide, N-Ethylmaleimide]
[1]
  inhibition of PMA-induced JAML shedding, differentiated HL60: No decrease in JAML shedding

## CC(C)C[C@H](CC(=O)NO)C(=O)N[C@H](C(=O)N[C@@H](C)C(=O)NCCN)C(C)(C)C [TAPI-2]
[2]
  inhibition of PMA-induced JAML shedding, PLB985: inhibition of shedding
[3]
  inhibition of PMA-induced JAML release, CHO-JAML-His transfectants: strongly inhibited JAML release due to PMA activation

## CCCCCCCCCCCCCC(=O)O[C@@H]1[C@@H](C)[C@@]2(O)[C@@H](C=C(CO)C[C@]3(O)C(=O)C(C)=C[C@@H]23)[C@@H]2C(C)(C)[C@]12OC(C)=O [PMA, Phorbol Myristate Acetate]
[4]
  surface JAML on HL-60 and PLB-985 after PMA: complete loss of surface JAML
PMN
  surface JAML on PMN after PMA: complete loss of surface JAML from PMNs
monocytes
  JAML expression on monocytes after PMA: lost upon activation with PMA

B1: Ad5: recombinant adenoviral fiber knob protein Ad5, reported to bind murine CAR (protein)
chain: GAITVGNKNNDKLTLWTTPAPSPNCRLNAEKDAKLTLVLTKCGSQILATVSVLAVKGSLAPISGTVQSAHLIIRFDENGVLLNNSFLDPEYWNFRNGDLTEGTAYTNAVGFMPNLSAYPKSHGKTAKSNIVSQVYLNGDKTKPVTLTITLNGTQETGDTTPSAYSMSFSWDWSGHNYINEIFATSSYTFSYIAQE
modifications: left off: small tags and cut ends
Epithelial CAR
  colocalization with epithelial CAR at wounded areas: colocalizes with epithelial CAR at wounded areas
Murine CAR
  binding to murine CAR and competition with JAML binding (Witherden et al. 2010): has been reported to bind murine CAR and compete with JAML binding
CAR
  mucosal wound healing 4 days after wounding: ~20%
